# “And” between values parts separate entries of the source, which are not always exact repeats. Equal values may be shown once.
# System: 233499-124-R-J3-PDC complex spheroid growth
# Test: Anticancer human tumor 233499-124-R-J3-PDC patient-derived colon adenocarcinoma cell line growth inhibition [AhR]
# Settings: for viability, T/C: stronger effect = lower value
# Method in brief: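 Complex tumor spheroids co-cultured with HUVEC and human MSC stroma; AhR antagonists tested in combination with standard-of-care and investigational agents. Top concentration at or near clinical Cmax (else 10 microM), half-log dilutions; growth expressed as percent test/control.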
# [1] = curve of first compound, second compound 0.1 µM
# [2] = curve of first compound, second compound 0.316 µM
# [3] = curve of first compound, second compound 1 µM
# [4] = curve of first compound, second compound 3.16 µM
# [5] = curve of first compound, second compound 10 µM
# [6] = second compound 0.1 µM, first compound 0.000949 µM
# [7] = second compound 0.1 µM, first compound 0.003 µM
# [8] = second compound 0.1 µM, first compound 0.00949 µM
# [9] = second compound 0.1 µM, first compound 0.03 µM
# [10] = second compound 0.1 µM, first compound 0.0949 µM
# [11] = second compound 0.1 µM, first compound 0.3 µM
# [12] = second compound 0.316 µM, first compound 0.000949 µM
# [13] = second compound 0.316 µM, first compound 0.003 µM
# [14] = second compound 0.316 µM, first compound 0.00949 µM
# [15] = second compound 0.316 µM, first compound 0.03 µM
# [16] = second compound 0.316 µM, first compound 0.0949 µM
# [17] = second compound 0.316 µM, first compound 0.3 µM
# [18] = second compound 1 µM, first compound 0.000949 µM
# [19] = second compound 1 µM, first compound 0.003 µM
# [20] = second compound 1 µM, first compound 0.00949 µM
# [21] = second compound 1 µM, first compound 0.03 µM
# [22] = second compound 1 µM, first compound 0.0949 µM
# [23] = second compound 1 µM, first compound 0.3 µM
# [24] = second compound 3.16 µM, first compound 0.000949 µM
# [25] = second compound 3.16 µM, first compound 0.003 µM
# [26] = second compound 3.16 µM, first compound 0.00949 µM
# [27] = second compound 3.16 µM, first compound 0.03 µM
# [28] = second compound 3.16 µM, first compound 0.0949 µM
# [29] = second compound 3.16 µM, first compound 0.3 µM
# [30] = second compound 10 µM, first compound 0.000949 µM
# [31] = second compound 10 µM, first compound 0.003 µM
# [32] = second compound 10 µM, first compound 0.00949 µM
# [33] = second compound 10 µM, first compound 0.03 µM
# [34] = second compound 10 µM, first compound 0.0949 µM
# [35] = second compound 10 µM, first compound 0.3 µM
# [36] = second compound 0.1 µM, first compound 0.0316 µM
# [37] = second compound 0.1 µM, first compound 0.1 µM
# [38] = second compound 0.1 µM, first compound 0.316 µM
# [39] = second compound 0.1 µM, first compound 1 µM
# [40] = second compound 0.1 µM, first compound 3.16 µM
# [41] = second compound 0.1 µM, first compound 10 µM
# [42] = second compound 0.316 µM, first compound 0.0316 µM
# [43] = second compound 0.316 µM, first compound 0.1 µM
# [44] = second compound 0.316 µM, first compound 0.316 µM
# [45] = second compound 0.316 µM, first compound 1 µM
# [46] = second compound 0.316 µM, first compound 3.16 µM
# [47] = second compound 0.316 µM, first compound 10 µM
# [48] = second compound 1 µM, first compound 0.0316 µM
# [49] = second compound 1 µM, first compound 0.1 µM
# [50] = second compound 1 µM, first compound 0.316 µM
# [51] = second compound 1 µM, first compound 1 µM
# [52] = second compound 1 µM, first compound 3.16 µM
# [53] = second compound 1 µM, first compound 10 µM
# [54] = second compound 3.16 µM, first compound 0.0316 µM
# [55] = second compound 3.16 µM, first compound 0.1 µM
# [56] = second compound 3.16 µM, first compound 0.316 µM
# [57] = second compound 3.16 µM, first compound 1 µM
# [58] = second compound 3.16 µM, first compound 3.16 µM
# [59] = second compound 3.16 µM, first compound 10 µM
# [60] = second compound 10 µM, first compound 0.0316 µM
# [61] = second compound 10 µM, first compound 0.1 µM
# [62] = second compound 10 µM, first compound 0.316 µM
# [63] = second compound 10 µM, first compound 1 µM
# [64] = second compound 10 µM, first compound 3.16 µM
# [65] = second compound 10 µM, first compound 10 µM
# 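Further: spheroids exposed to agents for seven days before reading.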
smiles,measurement,setting,value
CC(C)CC(NC(=O)C(Cc1ccccc1)NC(=O)c1cnccn1)B(O)O (stereo not drawn) + Cc1ccccc1N=Nc1ccc(NC(=O)c2ccnn2C)c(C)c1,IC50,[1],16.3 nM
same,IC50,[2],16.5 nM
same,IC50,[3],18.2 nM
same,IC50,[4],15.6 nM
same,IC50,[5],17.3 nM
same,"viability, T/C",[6],103%
same,"viability, T/C",[7],110%
same,"viability, T/C",[8],94.1%
same,"viability, T/C",[9],0.26%
same,"viability, T/C",[10],0.06%
same,"viability, T/C",[11],0.13%
same,"viability, T/C",[12],99.4%
same,"viability, T/C",[13],108%
same,"viability, T/C",[14],94.5%
same,"viability, T/C",[15],1.73%
same,"viability, T/C",[16],0.06%
same,"viability, T/C",[17],0.13%
same,"viability, T/C",[18],111%
same,"viability, T/C",[19],110%
same,"viability, T/C",[20],98.1%
same,"viability, T/C",[21],12.9%
same,"viability, T/C",[22],0.64%
same,"viability, T/C",[23],0.14%
same,"viability, T/C",[24],111%
same,"viability, T/C",[25],96.9%
same,"viability, T/C",[26],83.8%
same,"viability, T/C",[27],5.62%
same,"viability, T/C",[28],0.09%
same,"viability, T/C",[29],0.14%
same,"viability, T/C",[30],106%
same,"viability, T/C",[31],108%
same,"viability, T/C",[32],105%
same,"viability, T/C",[33],0.37%
same,"viability, T/C",[34],0.18%
same,"viability, T/C",[35],0.22%
Nc1ncn(C2CC(O)C(CO)S2)c(=O)n1 (stereo not drawn) + CC(CO)NC(=O)c1cc(-c2ccc(Cl)cc2)nn(-c2cnn(C)c2)c1=O,IC50,[1],> 300 nM
same,IC50,[2],> 300 nM
same,IC50,[3],> 300 nM
same,IC50,[4],> 300 nM
same,IC50,[5],> 300 nM
same,"viability, T/C",[6],106%
same,"viability, T/C",[7],109%
same,"viability, T/C",[8],92.5%
same,"viability, T/C",[9],109%
same,"viability, T/C",[10],104%
same,"viability, T/C",[11],86.3%
same,"viability, T/C",[12],99.5%
same,"viability, T/C",[13],95.5%
same,"viability, T/C",[14],105%
same,"viability, T/C",[15],97%
same,"viability, T/C",[16],104%
same,"viability, T/C",[17],95%
same,"viability, T/C",[18],98.2%
same,"viability, T/C",[19],105%
same,"viability, T/C",[20],113%
same,"viability, T/C",[21],100%
same,"viability, T/C",[22],106%
same,"viability, T/C",[23],96.9%
same,"viability, T/C",[24],103%
same,"viability, T/C",[25],100%
same,"viability, T/C",[26],103%
same,"viability, T/C",[27],112%
same,"viability, T/C",[28],89.5%
same,"viability, T/C",[29],90.5%
same,"viability, T/C",[30],86.8%
same,"viability, T/C",[31],84.1%
same,"viability, T/C",[32],101%
same,"viability, T/C",[33],100%
same,"viability, T/C",[34],102%
same,"viability, T/C",[35],87.6%
O=C(C=Cc1cccc(S(=O)(=O)Nc2ccccc2)c1)NO + CC(CO)NC(=O)c1cc(-c2ccc(Cl)cc2)nn(-c2cnn(C)c2)c1=O,IC50,[1],5440 nM
same,IC50,[2],2910 nM
same,IC50,[3],5150 nM
same,IC50,[4],3070 nM
same,IC50,[5],3520 nM
same,"viability, T/C",[36],98%
same,"viability, T/C",[37],108%
same,"viability, T/C",[38],111%
same,"viability, T/C",[39],115%
same,"viability, T/C",[40],89%
same,"viability, T/C",[41],6.36%
same,"viability, T/C",[42],99.5%
same,"viability, T/C",[43],93%
same,"viability, T/C",[44],98.2%
same,"viability, T/C",[45],96.6%
same,"viability, T/C",[46],46.3%
same,"viability, T/C",[47],4.58%
same,"viability, T/C",[48],97.6%
same,"viability, T/C",[49],94.3%
same,"viability, T/C",[50],110%
same,"viability, T/C",[51],112%
same,"viability, T/C",[52],84.1%
same,"viability, T/C",[53],3.72%
same,"viability, T/C",[54],94.4%
same,"viability, T/C",[55],87.6%
same,"viability, T/C",[56],117%
same,"viability, T/C",[57],108%
same,"viability, T/C",[58],48.7%
same,"viability, T/C",[59],2.7%
same,"viability, T/C",[60],93.9%
same,"viability, T/C",[61],73.9%
same,"viability, T/C",[62],90.9%
same,"viability, T/C",[63],119%
same,"viability, T/C",[64],54.9%
same,"viability, T/C",[65],3.22%
CC(C)c1c(-c2ccccc2)nc2c(C#N)c[nH]n2c1=O,"viability, T/C",compound 0.0316 µM,101% and 108% and 114%
same,"viability, T/C",compound 0.1 µM,105% (2×) and 103%
same,"viability, T/C",compound 0.316 µM,107% and 96% and 113%
same,"viability, T/C",compound 1 µM,94% and 102% and 93.5%
same,"viability, T/C",compound 3.16 µM,98.7% and 110% and 117%
same,"viability, T/C",compound 10 µM,117% and 124% and 105%
same,IC50,curve of compound,> 10000 nM
NS(=O)(=O)OCC1CC(n2ccc3c(NC4CCc5ccccc54)ncnc32)CC1O (stereo not drawn) + Cc1ccccc1N=Nc1ccc(NC(=O)c2ccnn2C)c(C)c1,IC50,[1],409 nM
same,IC50,[2],442 nM
same,IC50,[3],395 nM
same,IC50,[4],475 nM
same,IC50,[5],637 nM
same,"viability, T/C",[36],110%
same,"viability, T/C",[37],113%
same,"viability, T/C",[38],61.3%
same,"viability, T/C",[39],10.8%
same,"viability, T/C",[40],2.55%
same,"viability, T/C",[41],3.77%
same,"viability, T/C",[42],125%
same,"viability, T/C",[43],96.6%
same,"viability, T/C",[44],68.1%
same,"viability, T/C",[45],16.6%
same,"viability, T/C",[46],3.6%
same,"viability, T/C",[47],2.37%
same,"viability, T/C",[48],116%
same,"viability, T/C",[49],103%
same,"viability, T/C",[50],58.2%
same,"viability, T/C",[51],15.8%
same,"viability, T/C",[52],3.88%
same,"viability, T/C",[53],3.13%
same,"viability, T/C",[54],115%
same,"viability, T/C",[55],97.5%
same,"viability, T/C",[56],70.8%
same,"viability, T/C",[57],14.6%
same,"viability, T/C",[58],2.81%
same,"viability, T/C",[59],3.25%
same,"viability, T/C",[60],109%
same,"viability, T/C",[61],108%
same,"viability, T/C",[62],83.6%
same,"viability, T/C",[63],28.6%
same,"viability, T/C",[64],4.02%
same,"viability, T/C",[65],3.01%
Nc1ccn(C2OC(CO)C(O)C2(F)F)c(=O)n1 (stereo not drawn),"viability, T/C",compound 0.0316 µM,108% and 76.6% and 99.2%
same,"viability, T/C",compound 0.1 µM,91.1% and 89.1% and 80.1%
same,"viability, T/C",compound 0.316 µM,75.9% and 48.8% and 61.6%
same,"viability, T/C",compound 1 µM,51.4% and 43.7% and 46.9%
same,"viability, T/C",compound 3.16 µM,45.5% and 50.5% and 62.4%
same,"viability, T/C",compound 10 µM,54.1% and 54.5% and 59.6%

# — PubChem BioAssay AID1918993 (Molecular Pharmacology Branch, DTP, NCI, 2023)
